According to patent US20080249141A1, “Co-therapy with and combinations of statins and 1,4-dihydropyridine-3,5-dicarboxydiesters” (priority 2007, published 2008):

Conditions: patient

Row | Compound | therapeutic effectiveness after change from crystalline atorvastatin calcium (20 mg once daily with 10 mg amlodipine) | therapeutic effect (20 mg once a day, co-administered 10 mg amlodipine once daily)
1 | CC(C)c1c(C(=O)Nc2ccccc2)c(-c2ccccc2)c(-c2ccc(F)cc2)n1CC[C@@H](O)C[C@@H](O)CC(=O)[O-].CC(C)c1c(C(=O)Nc2ccccc2)c(-c2ccccc2)c(-c2ccc(F)cc2)n1CC[C@@H](O)C[C@@H](O)CC(=O)[O-].[Ca+2] [amorphous atorvastatin calcium] | without change in the therapeutic effectiveness | 
2 | CC(C)c1c(C(=O)Nc2ccccc2)c(-c2ccccc2)c(-c2ccc(F)cc2)n1CC[C@@H](O)C[C@@H](O)CC(=O)[O-].CC(C)c1c(C(=O)Nc2ccccc2)c(-c2ccccc2)c(-c2ccc(F)cc2)n1CC[C@@H](O)C[C@@H](O)CC(=O)[O-].[Ca+2] [crystalline atorvastatin calcium] |  | good therapeutic effect
